# Test results from PubChem BioAssay AID1963827 (Molecular Pharmacology Branch, DTP, NCI, 2024).
# Test system: 994946-033-R-J1-PDC complex spheroid viability
# Test: Anticancer human tumor 994946-033-R-J1-PDC patient-derived melanoma cell line growth inhibition [POLQ]
# Settings: for IC50: curve of first compound; for viability, T/C: stronger effect = lower value
# Outline: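 PDC + HUVEC + MSC complex spheroids; POLQ inhibitors ± partner drugs; top conc. at/near clinical Cmax, else 10 microM (SN-38 1 microM), half-log dilutions; 37 degrees C, 5% CO2.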
# [1] = second compound 0.0316 µM, first compound 0.0316 µM
# [2] = second compound 0.0316 µM, first compound 0.1 µM
# [3] = second compound 0.1 µM, first compound 0.0316 µM
# [4] = second compound 0.1 µM, first compound 0.1 µM
# [5] = second compound 0.316 µM, first compound 0.0316 µM
# [6] = second compound 0.316 µM, first compound 0.1 µM
# [7] = second compound 1 µM, first compound 0.0316 µM
# [8] = second compound 1 µM, first compound 0.1 µM
# [9] = second compound 3.16 µM, first compound 0.0316 µM
# [10] = second compound 3.16 µM, first compound 0.1 µM
# [11] = second compound 10 µM, first compound 0.0316 µM
# [12] = second compound 10 µM, first compound 0.1 µM
# 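Further: spheroids exposed to drugs for 7 days.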
# 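Wherever viability, T/C is given: 100% = DMSO vehicle treated spheroids.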
structure (smiles),measurement,setting,value
CC(=O)O[C@H]1C(=O)[C@@]2(C)[C@H]([C@H](OC(=O)c3ccccc3)[C@]3(O)C[C@H](OC(=O)[C@H](O)[C@@H](NC(=O)c4ccccc4)c4ccccc4)C(C)=C1C3(C)C)[C@]1(OC(C)=O)CO[C@@H]1C[C@@H]2O + Nc1ccc(C#CCN(C(=O)Cc2ncc(C(F)(F)F)cc2C(F)(F)F)c2ccc(F)cc2)nn1,IC50,second compound 0.0316 µM,< 9.49 nM
same,IC50,second compound 0.1 µM,< 9.49 nM
same,IC50,second compound 0.316 µM,< 9.49 nM
same,IC50,second compound 1 µM,< 9.49 nM
same,IC50,second compound 3.16 µM,< 9.49 nM
same,IC50,second compound 10 µM,< 9.49 nM
same,"viability, T/C","second compound 0.0316 µM, first compound 0.00949 µM",20.4%
same,"viability, T/C","second compound 0.0316 µM, first compound 0.03 µM",18.5%
same,"viability, T/C","second compound 0.0316 µM, first compound 0.0949 µM",14.8%
same,"viability, T/C","second compound 0.0316 µM, first compound 0.3 µM",22%
same,"viability, T/C","second compound 0.0316 µM, first compound 0.949 µM",13.5%
same,"viability, T/C","second compound 0.0316 µM, first compound 3 µM",12%
same,"viability, T/C","second compound 0.1 µM, first compound 0.00949 µM",25.9%
same,"viability, T/C","second compound 0.1 µM, first compound 0.03 µM",23.6%
same,"viability, T/C","second compound 0.1 µM, first compound 0.0949 µM",19.4%
same,"viability, T/C","second compound 0.1 µM, first compound 0.3 µM",15.9%
same,"viability, T/C","second compound 0.1 µM, first compound 0.949 µM",9.63%
same,"viability, T/C","second compound 0.1 µM, first compound 3 µM",13.3%
same,"viability, T/C","second compound 0.316 µM, first compound 0.00949 µM",22.3%
same,"viability, T/C","second compound 0.316 µM, first compound 0.03 µM",20.8%
same,"viability, T/C","second compound 0.316 µM, first compound 0.0949 µM",20.4%
same,"viability, T/C","second compound 0.316 µM, first compound 0.3 µM",15.9%
same,"viability, T/C","second compound 0.316 µM, first compound 0.949 µM",13.8%
same,"viability, T/C","second compound 0.316 µM, first compound 3 µM",13.9%
same,"viability, T/C","second compound 1 µM, first compound 0.00949 µM",29.7%
same,"viability, T/C","second compound 1 µM, first compound 0.03 µM",24.9%
same,"viability, T/C","second compound 1 µM, first compound 0.0949 µM",20%
same,"viability, T/C","second compound 1 µM, first compound 0.3 µM",20%
same,"viability, T/C","second compound 1 µM, first compound 0.949 µM",15.3%
same,"viability, T/C","second compound 1 µM, first compound 3 µM",13.2%
same,"viability, T/C","second compound 3.16 µM, first compound 0.00949 µM",29.2%
same,"viability, T/C","second compound 3.16 µM, first compound 0.03 µM",24.2%
same,"viability, T/C","second compound 3.16 µM, first compound 0.0949 µM",18.4%
same,"viability, T/C","second compound 3.16 µM, first compound 0.3 µM",15.3%
same,"viability, T/C","second compound 3.16 µM, first compound 0.949 µM",14.1%
same,"viability, T/C","second compound 3.16 µM, first compound 3 µM",12.1%
same,"viability, T/C","second compound 10 µM, first compound 0.00949 µM",24.8%
same,"viability, T/C","second compound 10 µM, first compound 0.03 µM",24%
same,"viability, T/C","second compound 10 µM, first compound 0.0949 µM",25%
same,"viability, T/C","second compound 10 µM, first compound 0.3 µM",18%
same,"viability, T/C","second compound 10 µM, first compound 0.949 µM",18.9%
same,"viability, T/C","second compound 10 µM, first compound 3 µM",12.2%
CC[C@@]1(O)C(=O)OCc2c1cc1n(c2=O)Cc2cc3c(CN(C)C)c(O)ccc3nc2-1 + Nc1ccc(C#CCN(C(=O)Cc2ncc(C(F)(F)F)cc2C(F)(F)F)c2ccc(F)cc2)nn1,IC50,second compound 0.0316 µM,26.5 nM
same,IC50,second compound 0.1 µM,29.4 nM
same,IC50,second compound 0.316 µM,21.4 nM
same,IC50,second compound 1 µM,22.5 nM
same,IC50,second compound 3.16 µM,21.5 nM
same,IC50,second compound 10 µM,30.3 nM
same,"viability, T/C","second compound 0.0316 µM, first compound 0.000316 µM",95.3%
same,"viability, T/C","second compound 0.0316 µM, first compound 0.001 µM",94.5%
same,"viability, T/C","second compound 0.0316 µM, first compound 0.00316 µM",99.9%
same,"viability, T/C","second compound 0.0316 µM, first compound 0.01 µM",79%
same,"viability, T/C",[1],45%
same,"viability, T/C",[2],9.6%
same,"viability, T/C","second compound 0.1 µM, first compound 0.000316 µM",91.7%
same,"viability, T/C","second compound 0.1 µM, first compound 0.001 µM",113%
same,"viability, T/C","second compound 0.1 µM, first compound 0.00316 µM",78.2%
same,"viability, T/C","second compound 0.1 µM, first compound 0.01 µM",98.9%
same,"viability, T/C",[3],46.9%
same,"viability, T/C",[4],15.4%
same,"viability, T/C","second compound 0.316 µM, first compound 0.000316 µM",101%
same,"viability, T/C","second compound 0.316 µM, first compound 0.001 µM",109%
same,"viability, T/C","second compound 0.316 µM, first compound 0.00316 µM",89.9%
same,"viability, T/C","second compound 0.316 µM, first compound 0.01 µM",79.5%
same,"viability, T/C",[5],34.6%
same,"viability, T/C",[6],17.1%
same,"viability, T/C","second compound 1 µM, first compound 0.000316 µM",130%
same,"viability, T/C","second compound 1 µM, first compound 0.001 µM",90.3%
same,"viability, T/C","second compound 1 µM, first compound 0.00316 µM",106%
same,"viability, T/C","second compound 1 µM, first compound 0.01 µM",87.8%
same,"viability, T/C",[7],33.7%
same,"viability, T/C",[8],11.7%
same,"viability, T/C","second compound 3.16 µM, first compound 0.000316 µM",92%
same,"viability, T/C","second compound 3.16 µM, first compound 0.001 µM",119%
same,"viability, T/C","second compound 3.16 µM, first compound 0.00316 µM",96.8%
same,"viability, T/C","second compound 3.16 µM, first compound 0.01 µM",86.8%
same,"viability, T/C",[9],31.4%
same,"viability, T/C",[10],13.7%
same,"viability, T/C","second compound 10 µM, first compound 0.000316 µM",100%
same,"viability, T/C","second compound 10 µM, first compound 0.001 µM",113%
same,"viability, T/C","second compound 10 µM, first compound 0.00316 µM",98.5%
same,"viability, T/C","second compound 10 µM, first compound 0.01 µM",110%
same,"viability, T/C",[11],47.7%
same,"viability, T/C",[12],14.4%
O=c1[nH]cc(F)c(=O)[nH]1 + Nc1ccc(C#CCN(C(=O)Cc2ncc(C(F)(F)F)cc2C(F)(F)F)c2ccc(F)cc2)nn1,IC50,second compound 0.0316 µM,> 10000 nM
same,IC50,second compound 0.1 µM,> 10000 nM
same,IC50,second compound 0.316 µM,> 10000 nM
same,IC50,second compound 1 µM,> 10000 nM
same,IC50,second compound 3.16 µM,5540 nM
same,IC50,second compound 10 µM,> 10000 nM
same,"viability, T/C",[1],104%
same,"viability, T/C",[2],114%
same,"viability, T/C","second compound 0.0316 µM, first compound 0.316 µM",92.5%
same,"viability, T/C","second compound 0.0316 µM, first compound 1 µM",67.9%
same,"viability, T/C","second compound 0.0316 µM, first compound 3.16 µM",62.8%
same,"viability, T/C","second compound 0.0316 µM, first compound 10 µM",54%
same,"viability, T/C",[3],101%
same,"viability, T/C",[4],75.6%
same,"viability, T/C","second compound 0.1 µM, first compound 0.316 µM",93.7%
same,"viability, T/C","second compound 0.1 µM, first compound 1 µM",81%
same,"viability, T/C","second compound 0.1 µM, first compound 3.16 µM",60.1%
same,"viability, T/C","second compound 0.1 µM, first compound 10 µM",68.9%
same,"viability, T/C",[5],81.9%
same,"viability, T/C",[6],81.1%
same,"viability, T/C","second compound 0.316 µM, first compound 0.316 µM",104%
same,"viability, T/C","second compound 0.316 µM, first compound 1 µM",70.8%
same,"viability, T/C","second compound 0.316 µM, first compound 3.16 µM",76.1%
same,"viability, T/C","second compound 0.316 µM, first compound 10 µM",63.1%
same,"viability, T/C",[7],100%
same,"viability, T/C",[8],83.1%
same,"viability, T/C","second compound 1 µM, first compound 0.316 µM",116%
same,"viability, T/C","second compound 1 µM, first compound 1 µM",61.1%
same,"viability, T/C","second compound 1 µM, first compound 3.16 µM",66.8%
same,"viability, T/C","second compound 1 µM, first compound 10 µM",50.8%
same,"viability, T/C",[9],97.2%
same,"viability, T/C",[10],112%
same,"viability, T/C","second compound 3.16 µM, first compound 0.316 µM",81.2%
same,"viability, T/C","second compound 3.16 µM, first compound 1 µM",85.3%
same,"viability, T/C","second compound 3.16 µM, first compound 3.16 µM",49.2%
same,"viability, T/C","second compound 3.16 µM, first compound 10 µM",47%
same,"viability, T/C",[11],111%
same,"viability, T/C",[12],51.9%
same,"viability, T/C","second compound 10 µM, first compound 0.316 µM",86.9%
same,"viability, T/C","second compound 10 µM, first compound 1 µM",67.6%
same,"viability, T/C","second compound 10 µM, first compound 3.16 µM",75.3%
same,"viability, T/C","second compound 10 µM, first compound 10 µM",42.4%
